Results on 22 sequences are retold here after patent US20230192774A1, “IMM[…] POLYOMAVIRUSES” (The Council of the Queensland Institute of Medical Research, priority 2019, published 2023).

Common to all, as to format: cell-based, human
In assay [1] the test system is Peptide-specific T cells. In words: T cell cross-reactivity between JCV and BKV epitopes (intracellular cytokine assay). Particulars: for recognition of BKV and JCV peptide by T cells expanded with the epitope: expanded with one epitope, re-stimulated with JCV or BKV epitope, IFN-γ; for BKV cross-reactivity: CD4^+ T cell responses to JCV peptides. An excerpt:
ICS FACS plots show the expression of IFN-γ in T cells expanded with either BKV epitope (SSGTQQWRGLARYFK (SEQ ID NO: 33)) or JCV epitope (RSGSQQWRGLSRYFK (SEQ ID NO: 12)). These primed T cells were stimulated using both BKV and JCV peptide showing that the T cells expanded with either of these epitopes recognize both BKV and JCV peptide sequences.
Peptide-specific T cells were expanded in vitro following stimulation with JCV epitope or BKV epitope and then re-stimulated with the corresponding […] peptide epitope (see Table 2) so as to observe any cross-reactive response between JCV and BKV epitopes. Specifically, PBMC from healthy volunteers were cultured with synthetic JCV peptide epitope RSGSQQWRGLSRYFK (SEQ ID NO: 12) or with synthetic BKV peptide epitope SSGTQQWRGLARYFK (SEQ ID NO: 33). Following initial expansion, each sample was re-stimulated (re-called) with either JCV epitope RSGSQQWRGLSRYFK (SEQ ID NO: 12) or BKV epitope SSGTQQWRGLARYFK (SEQ ID NO: 33) (wherein samples re-called with the same epitope act as internal controls). The reactivity of the expanded T cells was assessed using standard intracellular cytokine assays (see FIG. 4).

The subject of assay [2] is CD4^+ T cells. In words: intracellular cytokine assay of T cells expanded with synthetic JCV peptides. Particulars: PBMC from healthy volunteers cultured 12-14 days with cytokines. How it is done:
JCV-specific T cells were expanded in vitro following stimulation with pooled JCV epitopes. Specifically, PBMC from healthy volunteers were stimulated with synthetic JCV peptides (Table 1) for 1 hour and then cultured for 12-14 days in the presence of different cytokine combinations, including IL-2 (10 ng/ml), IL7 (10 ng/ml), IL12 (10 ng/ml) and/or IL15 (10 ng/ml). The JCV specificity of the expanded T cells was assessed using standard intracellular cytokine assays (Table 6).

For assay [3], the system named is HLA class II. In words: HLA class II restriction analysis with peptide-loaded LCLs, IFN-γ ICS assay. Conditions: LCLs matching one single HLA allele of the donor loaded with peptide for 1 hour. How it is done: Specifically, the HLA class II-restriction of VDLHAFLSQAVFSNR (SEQ ID NO: 2) (LT29), FLSQAVFSNRTVASF (SEQ ID NO: 3) (LT30) and TVASFAVYTTKEKAQ (SEQ ID NO: 4) (LT32) peptides as HLA DRB1*10:01 is shown. Briefly, a panel of lymphoblastoid cells (LCLs) matching one single allele of the HLA type of the donor were chosen and loaded with respective peptide for 1 hour. The loaded LCLs were then used as stimulator cells in an IFN-γ ICS assay. The peptide, when presented by the MHC, elicits an IFN-γ response in JCV-specific T cells. […]

The test system of assay [4] is JCV-specific T cells. In words: two-dimensional peptide matrix epitope mapping, IFN-γ ICS assay. Conditions: FACS, individual LTA overlapping peptides. An excerpt:
JCV-specific T cells expanded in vitro using the OPPs were further characterized by identifying specific T cell determinants. […] The response using the subpools were overlayed on a two dimensional matrix, thus showing the common individual peptides among the pools. […] Figure discloses SEQ ID NOS 2-4, respectively, in order of appearance.
In order to precisely map the HLA class I and class II-restricted T cell responses, individual overlapping peptides (15 aa long overlapping by 10 aa) were sourced for LTA, STA and VP1 proteins for T cell epitope mapping. A two-dimensional peptide matrix was used to distribute all individual peptides into small overlapping peptide pools. For example, in the case of Large T Antigen, the matrix is arranged such that each peptide of the pools (LTA1 to LTA24) occurs once on the ordinate. The T cell response for each pool was measured by intracellular cytokine-staining (ICS) IFN-γ assay (see FIG. 2A) and the data overlayed on a two dimensional matrix as follows.
Thus, the common individual peptides among pools that elicited a T cell response were identified, i.e., peptide 32 (P32) at the intersection of row LTA4 and column LTA16 and peptides P29 and P30 at the intersection of row LTA3 with columns LTA23 and LTA24.

Entries after “also recorded” stand apart in the source; their conditions may differ.

For the sequence SSGTQQWRGLARYFK, the “recognition of BKV and JCV peptide by T cells expanded with the epitope” value in assay [1] was “recognize both the BKV and JCV peptide sequence”.
Turning to “TCGNILMWEAVTLKT (listed as Betapolyomavirus secuhominis)”, in assay [2], the “%IFNγ^+CD4^+ with 0.1 μg/ml peptide” value was 2.65% and the “%IFNγ^+CD4^+ with 1 μg/ml peptide” value was found to be 4.83%. In addition, the BKV cross-reactivity result in assay [1] was “Yes”. Also, the “HLA Restriction” value in assay [3] was “DRB1*15:01”.
For the sequence “IDQFMVVFEDVKGTG (listed as Betapolyomavirus secuhominis)”, in assay [2], the “%IFNγ^+CD4^+ with 0.1 μg/ml peptide” value came to 18.5% and the “%IFNγ^+CD4^+ with 1 μg/ml peptide” value was 24.8%. The BKV cross-reactivity entry in assay [1] is on record as “Yes”. Also, the “HLA Restriction” value in assay [3] is listed as “DRB1*14:04/; also recorded: DQB1*05:03”.
For “SKNQKSICQQAVDTV (listed as Betapolyomavirus secuhominis) [identical BKV homologue]” the same measures were 0.41%, 2.31%, “Yes” and “DRB1*04:01 &; also recorded: DQB1*02:02”.
As for “FLSQAVFSNRTVASF (listed as Betapolyomavirus secuhominis)”, in assay [2], the “%IFNγ^+CD4^+ with 0.1 μg/ml peptide” value was found to be 34.1% and the “%IFNγ^+CD4^+ with 1 μg/ml peptide” value is recorded as 38.39%. For the same sequence, in assay [1], the BKV cross-reactivity entry is “Yes”. For the same sequence, the “T cell response for individual peptide in the IFN-γ ICS assay” value (“T cell response for individual peptide” for short) in assay [4] is listed as “elicit a JCV-specific T cell response”. For the same sequence, in assay [3], the “HLA Restriction” value is on record as “DRB1*10:01”.
Turning to “MTREEMLVERFNFLL (listed as Betapolyomavirus secuhominis)”, in assay [2], the “%IFNγ^+CD4^+ with 0.1 μg/ml peptide” value was 2% and the “%IFNγ^+CD4^+ with 1 μg/ml peptide” value amounted to 3.8%. The BKV cross-reactivity result in assay [1] is reported as “Yes”. The “HLA Restriction” value in assay [3] is “DRB1*04:01 &; also recorded: DRB1*03:01”.
For “RKAYLKKCKELHPDK (listed as Betapolyomavirus secuhominis)” the same measures were 9.2%, 10.4%, “Yes” and “DRB1*13:01”.
For “NFLYKKMEQGVKVAH (listed as Betapolyomavirus secuhominis)”, in assay [2], the “%IFNγ^+CD4^+ with 0.1 μg/ml peptide” value is on record as 0.2% and the “%IFNγ^+CD4^+ with 1 μg/ml peptide” value is given as 1.2%. For the same sequence, the “HLA Restriction” value in assay [3] is listed as “DRB1*15:01”.
With “ERLNFELGVGIDQFM (listed as Betapolyomavirus secuhominis)”, in assay [2], the “%IFNγ^+CD4^+ with 0.1 μg/ml peptide” value was determined as 2.2% and the “%IFNγ^+CD4^+ with 1 μg/ml peptide” value worked out at 6.32%. Moreover, in assay [1], the BKV cross-reactivity result is reported as “Yes”. Further, the “HLA Restriction” value in assay [3] is on record as “DRB1*15:01”.
For “MDKVLNREESMELMD (listed as Betapolyomavirus secuhominis) [identical BKV homologue]” the same measures were 1.65%, 5.26%, “Yes” and “DRB1*01:01”.
For “SICQQAVDTVAAKQR (listed as Betapolyomavirus secuhominis)” the same measures were 0.24%, 4.38%, “Yes” and “DRB1*04:01 &; also recorded: DQB1*02:02”.
For “KMKRMNFLYKKMEQG (listed as Betapolyomavirus secuhominis)” the same measures were 0.4%, 1.4%, “Yes” and “DRB1*15:01”.
Turning to “LRSSPLVWIDCYCFD (listed as Betapolyomavirus secuhominis)”, in assay [2], the “%IFNγ^+CD4^+ with 0.1 μg/ml peptide” value was found to be 0.4% and the “%IFNγ^+CD4^+ with 1 μg/ml peptide” value is 1.81%. In assay [3], the “HLA Restriction” value is listed as “DRB1*15:01”.
As for “TVASFAVYTTKEKAQ (listed as Betapolyomavirus secuhominis)”, in assay [2], the “%IFNγ^+CD4^+ with 0.1 μg/ml peptide” value is reported as 6.4% and the “%IFNγ^+CD4^+ with 1 μg/ml peptide” value is 7.34%. In assay [1], the BKV cross-reactivity result was “Yes”. Further, the “T cell response for individual peptide” value in assay [4] is listed as “elicit a JCV-specific T cell response”. In addition, in assay [3], the “HLA Restriction” value is listed as “DRB1*10:01”.
On to “VDLHAFLSQAVFSNR (listed as Betapolyomavirus secuhominis)”, for which, in assay [2], the “%IFNγ^+CD4^+ with 0.1 μg/ml peptide” value was found to be 20.26% and the “%IFNγ^+CD4^+ with 1 μg/ml peptide” value amounted to 25.49%. Also, the BKV cross-reactivity entry in assay [1] was “Yes”. Also, the “T cell response for individual peptide” value in assay [4] is reported as “elicit a JCV-specific T cell response”. The “HLA Restriction” value in assay [3] is recorded as “DRB1*10:01”.
With “SITEVECFLTPEMGD (listed as Betapolyomavirus secuhominis)”, in assay [2], the “%IFNγ^+CD4^+ with 0.1 μg/ml peptide” value was found to be 2.8% and the “%IFNγ^+CD4^+ with 1 μg/ml peptide” value was 2.71%. Moreover, the BKV cross-reactivity result in assay [1] was “Yes”. Moreover, in assay [3], the “HLA Restriction” value is “DRB1*01:01 &; also recorded: DQB1*05:01”.
The like results for “EQYMAGVAWIHCLLP (listed as Betapolyomavirus secuhominis)” were, in that order, 2.5%, 2.9%, “Yes” and “DRB1*04:01 &; also recorded: DRB1*03:01”.
“GGHNILFFLTPHRHR (listed as Betapolyomavirus secuhominis)”: in assay [2], the “%IFNγ^+CD4^+ with 0.1 μg/ml peptide” value was found to be 1.28% and the “%IFNγ^+CD4^+ with 1 μg/ml peptide” value is reported as 6.15%. Moreover, the BKV cross-reactivity entry in assay [1] is recorded as “Yes”. Besides, the “HLA Restriction” value in assay [3] is on record as “DRB1*16:O1”.
For “RYWLFKGPIDSGKTT [identical BKV homologue]” the same measures were 2.35%, 4.05%, “Yes” and “DRB1*15:01”.
For DPDMMRYVDKYGQLQ the same measures were 2.1%, 4.5%, “Yes” and “DRB1*04:02”.
As to “RNRKFLRSSPLVWID (listed as Betapolyomavirus secuhominis)”, in assay [2], the “%IFNγ^+CD4^+ with 0.1 μg/ml peptide” value was determined as 0.6% and the “%IFNγ^+CD4^+ with 1 μg/ml peptide” value was 3.03%. For the same sequence, the “HLA Restriction” value in assay [3] is “DRB1*15:01”.
As to RSGSQQWRGLSRYFK, in assay [2], the “%IFNγ^+CD4^+ with 0.1 μg/ml peptide” value was 7.8% and the “%IFNγ^+CD4^+ with 1 μg/ml peptide” value turned out to be 8.4%. Besides, in assay [1], the BKV cross-reactivity result is reported as “Yes”; the “recognition of BKV and JCV peptide by T cells expanded with the epitope” value was “recognize both the BKV and JCV peptide sequence”. In assay [3], the “HLA Restriction” value is recorded as “DRB1*11:01”.
